# Results as given in PubChem BioAssay (NCI).
#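 The compound was tested at five concentrations on cells cultured in 96-well plates, with a 48-hour exposure period. GI50 marks 50% less growth. TGI is the concentration that stops growth completely.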
# Columns and labels:
# Test in all cases: DTP human tumour cell line panel, 48 h
# MDA-MB-435 = tested on: MDA-MB-435
# SF-268 CNS = tested on: SF-268 CNS
# OVCAR-8 ovarian = tested on: OVCAR-8 ovarian
# EKVX NSCLC = tested on: EKVX NSCLC
# PC-3 prostate = tested on: PC-3 prostate
# MALME-3M melanoma = tested on: MALME-3M melanoma
# UACC-62 melanoma = tested on: UACC-62 melanoma
# DU-145 prostate = tested on: DU-145 prostate
# MCF7 breast = tested on: MCF7 breast
# SW-620 colon = tested on: SW-620 colon
# MOLT-4 leukemia = tested on: MOLT-4 leukemia
# 786-0 renal = tested on: 786-0 renal
# CAKI-1 renal = tested on: CAKI-1 renal
# U251 CNS = tested on: U251 CNS
# SN12C renal = tested on: SN12C renal
# HS 578T breast = tested on: HS 578T breast
# SR leukemia = tested on: SR leukemia
# A498 renal = tested on: A498 renal
# NCI-H522 lung = tested on: NCI-H522 lung
# HL-60(TB) leukemia = tested on: HL-60(TB) leukemia
# RPMI-8226 leukemia = tested on: RPMI-8226 leukemia
# SNB-75 CNS = tested on: SNB-75 CNS
# HCC-2998 colon = tested on: HCC-2998 colon
# SK-MEL-2 melanoma = tested on: SK-MEL-2 melanoma
# SF-295 CNS = tested on: SF-295 CNS
# HT29 colon = tested on: HT29 colon
# MDA-MB-231 breast = tested on: MDA-MB-231 breast
# SF-539 CNS = tested on: SF-539 CNS
# NCI-H23 lung = tested on: NCI-H23 lung
# RXF 393 renal = tested on: RXF 393 renal
# HCT-116 colon = tested on: HCT-116 colon
# UACC-257 melanoma = tested on: UACC-257 melanoma
# OVCAR-4 ovarian = tested on: OVCAR-4 ovarian
# CCRF-CEM leukemia = tested on: CCRF-CEM leukemia
# NCI/ADR-RES ovarian = tested on: NCI/ADR-RES ovarian
# A549 NSCLC = tested on: A549 NSCLC
# HOP-92 NSCLC = tested on: HOP-92 NSCLC
# BT-549 breast = tested on: BT-549 breast
# SK-MEL-28 melanoma = tested on: SK-MEL-28 melanoma
# UO-31 renal = tested on: UO-31 renal
# OVCAR-3 ovarian = tested on: OVCAR-3 ovarian
# LOX IMVI melanoma = tested on: LOX IMVI melanoma
# NCI-H226 lung = tested on: NCI-H226 lung
# HOP-62 NSCLC = tested on: HOP-62 NSCLC
# IGROV1 ovarian = tested on: IGROV1 ovarian
# M14 melanoma = tested on: M14 melanoma
# ACHN renal = tested on: ACHN renal
# HCT-15 colon = tested on: HCT-15 colon
# SK-MEL-5 melanoma = tested on: SK-MEL-5 melanoma
# KM12 colon = tested on: KM12 colon
# OVCAR-5 ovarian = tested on: OVCAR-5 ovarian
# K-562 leukemia = tested on: K-562 leukemia
# SK-OV-3 ovarian = tested on: SK-OV-3 ovarian
# SNB-19 CNS = tested on: SNB-19 CNS
# T-47D breast = tested on: T-47D breast
# NCI-H460 lung = tested on: NCI-H460 lung
# COLO 205 colon = tested on: COLO 205 colon
# TK-10 renal = tested on: TK-10 renal
# MDA-N = tested on: MDA-N
compound,measurement,setting,value
Oc1cn(-c2ccc(Cl)cc2)nc1-c1nnc(-c2ccccc2)o1,TGI,MDA-MB-435,10.4 µM
same,TGI,SF-268 CNS,17.9 µM
same,TGI,OVCAR-8 ovarian,14.2 µM
same,TGI,EKVX NSCLC,> 60.1 µM
same,TGI,PC-3 prostate,> 66.6 µM
same,TGI,MALME-3M melanoma,31.8 µM
same,TGI,UACC-62 melanoma,> 51.1 µM
same,TGI,DU-145 prostate,> 60.6 µM
same,TGI,MCF7 breast,7.16 µM
same,TGI,SW-620 colon,36.4 µM
same,TGI,MOLT-4 leukemia,19.9 µM
same,TGI,786-0 renal,12.2 µM
same,TGI,CAKI-1 renal,11.1 µM
same,TGI,U251 CNS,30.8 µM
same,TGI,SN12C renal,> 57 µM
same,TGI,HS 578T breast,40.8 µM
same,TGI,SR leukemia,20.8 µM
same,TGI,A498 renal,56.3 µM
same,TGI,NCI-H522 lung,22.9 µM
same,TGI,HL-60(TB) leukemia,17.7 µM
same,TGI,RPMI-8226 leukemia,31.9 µM
same,TGI,SNB-75 CNS,> 100 µM
same,GI50,HCC-2998 colon,0.739 µM
same,TGI,HCC-2998 colon,5.91 µM
same,TGI,SK-MEL-2 melanoma,> 71.3 µM
same,TGI,SF-295 CNS,4.52 µM
same,TGI,HT29 colon,27.6 µM
same,TGI,MDA-MB-231 breast,36.1 µM
same,TGI,SF-539 CNS,27 µM
same,TGI,NCI-H23 lung,1.01 µM
same,TGI,RXF 393 renal,9.55 µM
same,TGI,HCT-116 colon,1.14 µM
same,TGI,UACC-257 melanoma,21.6 µM
same,TGI,OVCAR-4 ovarian,> 100 µM
same,GI50,CCRF-CEM leukemia,2.46 µM
same,TGI,CCRF-CEM leukemia,> 100 µM
same,TGI,NCI/ADR-RES ovarian,7 µM
same,TGI,A549 NSCLC,31.5 µM
same,TGI,HOP-92 NSCLC,80.6 µM
same,GI50,BT-549 breast,4.24 µM
same,TGI,BT-549 breast,> 91.9 µM
same,TGI,SK-MEL-28 melanoma,53.1 µM
same,TGI,UO-31 renal,31.9 µM
same,TGI,OVCAR-3 ovarian,11.6 µM
same,GI50,LOX IMVI melanoma,1.63 µM
same,TGI,LOX IMVI melanoma,20.5 µM
same,TGI,NCI-H226 lung,30.7 µM
same,TGI,HOP-62 NSCLC,4.64 µM
same,TGI,IGROV1 ovarian,> 53.4 µM
same,TGI,M14 melanoma,11.7 µM
same,TGI,ACHN renal,24.5 µM
same,TGI,HCT-15 colon,27.2 µM
same,TGI,SK-MEL-5 melanoma,5.13 µM
same,TGI,KM12 colon,4.05 µM
same,TGI,OVCAR-5 ovarian,39.3 µM
same,TGI,K-562 leukemia,19.6 µM
same,TGI,SK-OV-3 ovarian,> 74 µM
same,TGI,SNB-19 CNS,> 68.5 µM
same,TGI,T-47D breast,> 92.7 µM
same,TGI,NCI-H460 lung,13.8 µM
same,TGI,COLO 205 colon,> 49.8 µM
same,TGI,TK-10 renal,3.76 µM
c1nc(OCC2CCCCC2)c2[nH]cnc2n1,TGI,MDA-MB-435,> 100 µM
same,TGI,SF-268 CNS,> 100 µM
same,TGI,OVCAR-8 ovarian,> 100 µM
same,TGI,EKVX NSCLC,> 100 µM
same,TGI,PC-3 prostate,> 100 µM
same,TGI,MALME-3M melanoma,> 100 µM
same,TGI,UACC-62 melanoma,> 100 µM
same,TGI,DU-145 prostate,> 100 µM
same,TGI,SW-620 colon,> 100 µM
same,TGI,MOLT-4 leukemia,> 100 µM
same,TGI,786-0 renal,> 100 µM
same,TGI,CAKI-1 renal,> 100 µM
same,TGI,U251 CNS,> 100 µM
same,TGI,SN12C renal,> 100 µM
same,TGI,HS 578T breast,> 100 µM
same,TGI,NCI-H522 lung,> 100 µM
same,TGI,HL-60(TB) leukemia,> 100 µM
same,TGI,RPMI-8226 leukemia,> 100 µM
same,TGI,SNB-75 CNS,> 100 µM
same,TGI,HCC-2998 colon,> 100 µM
same,TGI,SK-MEL-2 melanoma,> 100 µM
same,TGI,SF-295 CNS,> 100 µM
same,TGI,HT29 colon,> 100 µM
same,TGI,MDA-MB-231 breast,> 100 µM
same,TGI,SF-539 CNS,> 100 µM
same,TGI,NCI-H23 lung,> 100 µM
same,TGI,RXF 393 renal,> 100 µM
same,TGI,HCT-116 colon,> 100 µM
same,TGI,UACC-257 melanoma,> 100 µM
same,TGI,OVCAR-4 ovarian,> 100 µM
same,TGI,MDA-N,> 100 µM
same,TGI,CCRF-CEM leukemia,> 100 µM
same,TGI,NCI/ADR-RES ovarian,> 100 µM
same,TGI,A549 NSCLC,> 100 µM
same,TGI,HOP-92 NSCLC,> 100 µM
same,TGI,BT-549 breast,> 100 µM
same,TGI,SK-MEL-28 melanoma,> 100 µM
same,TGI,UO-31 renal,> 100 µM
same,TGI,OVCAR-3 ovarian,> 100 µM
same,TGI,LOX IMVI melanoma,> 100 µM
same,TGI,NCI-H226 lung,> 100 µM
same,TGI,HOP-62 NSCLC,> 100 µM
same,TGI,IGROV1 ovarian,> 100 µM
same,TGI,M14 melanoma,> 100 µM
same,TGI,ACHN renal,> 100 µM
same,TGI,HCT-15 colon,> 100 µM
same,TGI,SK-MEL-5 melanoma,> 100 µM
same,TGI,KM12 colon,> 100 µM
same,TGI,OVCAR-5 ovarian,> 100 µM
same,TGI,K-562 leukemia,> 100 µM
same,TGI,SK-OV-3 ovarian,> 100 µM
same,TGI,SNB-19 CNS,> 100 µM
same,TGI,NCI-H460 lung,> 100 µM
same,TGI,COLO 205 colon,> 100 µM
same,TGI,TK-10 renal,> 100 µM
